From publication PMC6458995, “MAP4K4 Inhibition Promotes Survival of Human Stem Cell-Derived Cardiomyocytes and Reduces Infarct Size In Vivo” (Cell Stem Cell, 2019)

Legend:
vCor.4U cells [1] = assay: Hypoxia-reoxygenation assay (CellTox Green); format: cell-based, human; settings: 3 cycles of 0.1% O2 over 8 h
Description: vCor.4U cells were plated at 10,000 well^-1 in Cor.4U medium using black, clear-bottom 96-well plates pre-treated with Geltrex (GIBCO). After incubation overnight at 37°C, the media was replaced with phenol red-free DMEM (GIBCO) supplemented with 2% FCS, 2 mM […], 1 mM pyruvate and 10 mM D-galactose. DMX-5804 prepared in DMSO and CellTox Green (Promega) were added and incubated for 1 hr at 37°C. A breathable seal (AeraSeal) was added to the plate before transferring to a CLARIOstar plate reader (BMG Labtech) equipped with an atmospheric control unit. Oxygen concentration ramping was executed as follows (% O2, hr), at 37°C and 5% CO2. Fluorescence measurements (λex/em 483-14/530-30) were taken using the multiple scan and direct bottom features (5 positions read), and matrix averaging of each position every 20 min. Data were blank corrected, averaged (n = 2) and subjected to exponential smoothing with a damping factor of 0.3.

cardiomyocyte apoptosis = assay: Cardiomyocyte apoptosis after myocardial infarction (TUNEL staining); format: in vivo, mice; settings: post-injury study
Description: Mice were treated subcutaneously with 0.024 mg buprenorphine (average, 1.1 mg kg^-1; […] Animal Health), intubated, and ventilated using a tidal volume of 250 μL and respiratory rate of 150 breaths min^-1 (Hugo-Sachs MiniVent type 845; Harvard Apparatus). After a left thoracotomy in the fourth intercostal space, the pericardium was removed. A 6-0 polypropylene suture was used to […] anterior descending coronary artery (LAD) and tied against a short section of PE-50 polyethylene tubing for 45 min; blood flow was re-established by removing the tubing, releasing the ligature. Ischemia and reperfusion were substantiated by reversible distal blanching and ST segment elevation. Mice were allowed to recover in a heated chamber for 20 min, then moved to a normal holding cage with supplemental heat if necessary. […] Nuclei were stained with 2.5 μg ml^-1 diamidinophenolindole (DAPI). Alternatively, fixed frozen sections were used. Cleaved DNA (apoptotic cells) was visualized using TUNEL ApopTag Kits (Millipore). Cardiomyocytes were identified using MF20 antibody to sarcomeric myosin heavy chains (MyHC; R&D Systems) (fluorescein-conjugated: Figure S3C; unconjugated, plus Alexa Fluor-555 anti-mouse IgG: Figure […]; conjugated and unconjugated mouse IgG2b were the respective controls). Sections were counterstained with DAPI and treated with Prolong Gold Antifade Mountant (Life Technologies). […]

cardiac MAP4K4 = cardiac MAP4K4 (Mus musculus, UniProt P97820); assay: Target engagement ex vivo (block to desthiobiotin-ATP binding); settings: adult mouse cardiac lysates; versus F1386-0303
Sequence of cardiac MAP4K4 (P97820 2-310 limits assumed): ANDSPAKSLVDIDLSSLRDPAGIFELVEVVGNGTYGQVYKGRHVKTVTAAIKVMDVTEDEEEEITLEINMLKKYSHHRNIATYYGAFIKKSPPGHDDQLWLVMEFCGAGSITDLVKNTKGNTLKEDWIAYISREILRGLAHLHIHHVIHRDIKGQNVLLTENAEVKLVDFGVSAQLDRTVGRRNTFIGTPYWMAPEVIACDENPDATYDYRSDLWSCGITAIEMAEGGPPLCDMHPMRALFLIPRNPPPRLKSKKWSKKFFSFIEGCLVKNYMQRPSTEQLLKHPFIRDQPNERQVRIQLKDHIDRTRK
Description: Lysates were prepared and assayed using a desthiobiotin-ATP probe Kinase Enrichment Kit (Thermo Fisher Scientific) ([Patricelli et al., 2011]). In brief, tissue samples (100-120 mg) were cut into small pieces and resuspended in 1 mL of Lysis Buffer containing protease and phosphatase inhibitors. After homogenization (30 s on ice), the lysates were centrifuged (16,000 x g at 4°C for 10 min) and a buffer-exchange to Reaction Buffer was performed, to remove endogenous ATPs. Protein concentrations were measured by the BCA assay (Thermo Fisher Scientific). Compounds were added to 500 μL of lysate at 2 mg/ml in presence of 20 mM MgCl2 and incubated for 10 min at room temperature. The ActivX desthiobiotin-ATP probe (5 μM) was added, and samples were incubated for 10 min. Reactions were stopped by adding 500 μL of 8 M Urea/Lysis Buffer, and labeled kinases were captured by incubating samples with 60 μL of 50% Streptavidin-Agarose beads. Samples were incubated with constant inversion for 2 hr at room temperature. Samples were centrifuged (1000 x g for 1 min) and washed three times with 500 μL of 4 M Urea/Lysis Buffer. Captured kinases were eluted by boiling in 30 μL of Laemmli sample buffer for 15 min. Samples were analyzed by western blotting for MAP4K4 and for Src or p38 and were normalized to the capture of the untargeted control kinase.

vCor.4U cells [2] = assay: Mitochondrial function (Seahorse XFe24, OCR and ECAR); format: cell-based, human; settings: menadione 15 μM, 2 h
Description: Mitochondrial function in hiPSC-CMs was determined using a Seahorse XFe24 Analyzer. vCor.4U cells (60,000 well^-1) were transferred to 0.1% gelatin-coated XF24 plates and maintained for 5 d, as described above. On day 6, DMX-5804 was added 45 min prior to challenge with menadione for 2 h. The medium was replaced 1 hr before the assay, using bicarbonate-free Seahorse assay medium (8.3 g L^-1 DMEM Base (Sigma-Aldrich), 10 mM glucose, 2 mM L-alanyl-L-glutamine dipeptide (Glutamax-1, GIBCO), 1 mM sodium pyruvate (GIBCO), pH 7.4). Cells were maintained at 37°C without supplemental CO2 starting 1 hr before the assay (IL10 incubator, VWR). For each state measured, three assay cycles were performed (4 min mixing, 2 min wait, and 2 min measurement periods, with readings every 15 s). The basal oxygen consumption rate (OCR) and extracellular acidification rate (ECAR) were determined, followed by sequential injection of 1 μM oligomycin A (Abcam) to inhibit ATP synthase, 0.5 μM […] (FCCP; Abcam) to uncouple oxidative phosphorylation, and 1 μM antimycin A/rotenone (Sigma, Abcam) to inhibit mitochondrial complex III and I. For each condition, 12 wells were tested, comprising 4 independent experiments.

VEGFR = assay: HTRF Transcreener ADP kinase assay; format: biochemical, human
Cerep Safety 44 panel = Cerep Safety 44 panel (SafetyScreen44); format: binding; settings: except metallothionein 3
rat ventricular myocytes = assay: Rat cardiac muscle cell death induced by H2O2 (sub-G1 DNA, flow cytometry); format: cell-based
Description: Ventricular myocytes from 1 to 3 day-old Sprague-Dawley rats were enzymatically dissociated, purified by Percoll gradient centrifugation and pre-plating, and cultured as described ([Oh et al., 2003]). To detect hypodiploid DNA, flow cytometry was performed (XL or LSRII, BD Biosciences), using propidium iodide to measure DNA content and sampling > 5000 cells for each histogram. Myocyte identity was confirmed using FITC-conjugated MF-20 antibody to sarcomeric MyHC (R&D Systems). To detect dissipation of mitochondrial membrane potential (ΔΨm), cells were incubated for 60 min in 5 μg ml^-1 5, 5′, 6, 6’-tetrachloro-1, 1’, 3, 3′-tetraethylbenzimidazolyl carbocyanine iodide (DePsipher; R&D Systems). When ΔΨm is intact, mitochondrial uptake and aggregation of the dye result in red fluorescence; when ΔΨm is disturbed, the dye diffuses to the cytoplasm and reverts to its monomeric green form. Myocyte identity was confirmed using mouse antibody to sarcomeric tropomyosin (Sigma-Aldrich) conjugated with Texas Red-X (Molecular Probes).

COCCOc1ccc(-c2cn(-c3ccccc3)c3nc[nH]c(=O)c23)cc1 [DMX-5804, 5-[4-(2-methoxy-ethoxy)-phenyl]-7-phenyl-3,7-dihydro-pyrrolo[2,3-d]pyrimidin-4-one]
protection of human cardiomyocyte survival, hypoxia-reoxygenation (vCor.4U cells [1]): confirmed | suppression of cardiomyocyte apoptosis in adjacent jeopardized myocardium (cardiomyocyte apoptosis): 52% | suppression of cardiomyocyte apoptosis within the infarct (cardiomyocyte apoptosis): 39% | greater affinity over the earlier compound (target engagement ex vivo) (cardiac MAP4K4): 10 × | extracellular acidification rate (vCor.4U cells [2]; 10 μM): partially rescued | improvement of residual maximum oxidative capacity (vCor.4U cells [2]; 10 μM): 5 fold | maximum oxidative capacity at lesser concentrations (vCor.4U cells [2]; below 10 μM): No significant benefits | Fold Selectivity (VEGFR; VEGFR versus MAP4K4): 675 | pIC50 (VEGFR; VEGFR, HTRF Transcreener ADP assay): 5.72 | DMX-5804 vs F1386-0303 (VEGFR; ratio of fold selectivity, VEGFR): 12.27 | Cerep Safety 44 panel (Cerep Safety 44 panel): no off-target effect

Oc1ncnc2c1c(-c1ccccc1)cn2-c1ccccc1 [F1386-0303, 5,7-diphenyl-7H-pyrrolo[2,3-d]pyrimidin-4-ol]
rat cardiomyocyte death (rat ventricular myocytes; H2O2, even at 1 μM): inhibited | inhibition at 10 µM (rat ventricular myocytes; Ventricular myocyte, rat ventricular myocytes, 10 μM): ~50% | adverse effect of compound (rat ventricular myocytes; rat ventricular myocytes, any of the concentrations (1-10 μM)): No adverse effect
